Columns and labels:
Format in all cases: physicochemical
[1] = Particle size analysis by laser diffraction of neat API; details: for Particle Size Mean / Particle Size Median / Particle Size Mode: dispersed in cyclohexane
From the text: For particle size analysis, by laser diffraction (LD), a small sample of the dry powder was dispersed into cyclohexane with sonication and then diluted to an appropriate signal level. The optical microscope was a Zeiss Model Std 25 fitted with a 40× objective. […] The Raman spectrometer was a Horiba XploRA Raman Microscope.

[2] = Optical microscopic examination of neat API dry powder; details: for estimates of size range by optical microscopy: 400× magnification
From the text: Neat API: For optical microscopic/image analysis examination the material was used as received. A small aliquot was placed on a clean microscope slide and a clean glass coverslip placed on top.
(§1) The optical microscope was a Zeiss Model Std 25 fitted with a 40× objective. The particle size analyzers were the Horiba LA 950 (LD) and a Malvern NanoSizer 90Z (DLS). The Raman spectrometer was a Horiba XploRA Raman Microscope.

[3] = Particle size of aspirin formulation vs dry aspirin (Example 4, DLS Z-average)
Protocol: The particle size of aspirin (dry powder) and the aspirin diluted in the dermal and/or transdermal liquid formulation set forth in Example 1 were compared. Two studies were carried out to determine the particle size (and distribution) of samples of: (i) the formulation of Example 1, lacking only the aspirin (delivery system control), (ii) the formulation of Example 1, including the aspirin (experimental) and (iii) pure (dry) aspirin (control).

[4] = Particle size analysis by Dynamic Light Scattering (Example 8); details: DLS intensity data
From the text: as §1

Compound	size of the majority of particles [1]	Particle Size Mean [1]	Particle Size Median [1]	Particle Size Mode [1]	particle size prior to formulation [2]	size relative to aspirin in the formulation of Example 1 ([3]; dry aspirin vs formulated aspirin)	average particle size ([3]; dry aspirin, prior to formulation)	estimates of size range by optical microscopy [2]	presence of particles as large as [4]
CC(=O)Nc1ccc(O)cc1 [Acetaminophen, N-acetyl-para-aminophenol]	–	58 μm	44 μm	42 μm	1-100 microns	–	–	from around one or two microns (μm) to over 100 μm	–
COc1ccc2cc(C(C)C(=O)O)ccc2c1 (stereo not drawn) [Naproxen, 2-(6-methoxynaphthalen-2-yl)propanoic acid]	around 20 μm	23 μm	23 μm	19 μm	–	–	–	singlet particles of only a few microns in size and aggregates as large as 100 μm	–
Neat Insulin: insulin supplied as an aqueous solution/suspension	–	–	–	–	–	–	–	–	≤ 5 μm

Now from value to compound, other results behind:

size of the majority of particles [1]	Particle Size Mean [1]	Particle Size Median [1]	Particle Size Mode [1]	particle size prior to formulation [2]	size relative to aspirin in the formulation of Example 1 ([3]; dry aspirin vs formulated aspirin)	average particle size ([3]; dry aspirin, prior to formulation)	Compound	estimates of size range by optical microscopy [2]	presence of particles as large as [4]
about 30 μm	34 μm	27 μm	28 μm	–	–	–	CC(C(=O)O)c1cccc(C(=O)c2ccccc2)c1 (racemic) [Ketoprofen, (RS)2-(3-benzoylphenyl)-propionic acid]	–	–
–	78 μm	70 μm	72 μm	–	–	–	CC(C)Cc1ccc(C(C)C(=O)O)cc1 (stereo not drawn) [Ibuprofen, iso-butyl-propanoic-phenolic acid]	from around 10 μm to over 100 μm	–
–	–	–	–	–	more than 10,000 times	670 microns	CC(=O)Oc1ccccc1C(=O)O [pure (dry) Aspirin, acetylsalicylic acid]	–	–

Reference: US12285487B2, “Liquid topical pharmaceutical nano-emulsion formulations” (JRX BIOTECHNOLOGY, INC., priority 2012, dated 2025)
